pIC50: −log10 of the molar value.
Key:
[1] = target: T1, Nuclear factor erythroid 2-related factor 2 (Mus musculus) (UniProt Q60795); test: Activation of Nrf2 in mouse Hepa1c1c7 cells assessed as increase in NQO1 activity at 0.5 uM; format: cell-based; conditions: filed as activator
T1 sequence (whole entry): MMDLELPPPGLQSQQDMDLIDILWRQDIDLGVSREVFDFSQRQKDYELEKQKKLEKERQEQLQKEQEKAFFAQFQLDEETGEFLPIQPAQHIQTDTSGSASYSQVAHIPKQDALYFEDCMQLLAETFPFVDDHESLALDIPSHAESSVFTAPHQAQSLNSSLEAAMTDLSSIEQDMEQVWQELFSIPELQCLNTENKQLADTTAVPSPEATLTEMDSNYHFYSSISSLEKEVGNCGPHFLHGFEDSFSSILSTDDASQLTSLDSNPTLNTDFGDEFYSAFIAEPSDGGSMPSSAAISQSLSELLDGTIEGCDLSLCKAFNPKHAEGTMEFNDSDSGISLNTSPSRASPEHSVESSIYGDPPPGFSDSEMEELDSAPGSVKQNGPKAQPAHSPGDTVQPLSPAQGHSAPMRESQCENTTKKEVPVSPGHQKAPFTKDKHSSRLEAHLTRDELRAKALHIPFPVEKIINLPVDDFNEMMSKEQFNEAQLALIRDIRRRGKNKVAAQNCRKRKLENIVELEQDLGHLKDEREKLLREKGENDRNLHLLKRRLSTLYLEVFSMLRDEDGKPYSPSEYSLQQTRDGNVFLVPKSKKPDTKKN

[2] = target: T1, Nuclear factor erythroid 2-related factor 2 (Mus musculus); test: Activation of Nrf2 in mouse Hepa1c1c7 cells assessed as increase in NQO1 activity at 15 uM; format: cell-based; conditions: filed as activator
[3] = target: T1, Nuclear factor erythroid 2-related factor 2 (Mus musculus); test: Activation of Nrf2 in mouse Hepa1c1c7 cells assessed as increase in NQO1 activity at 7.5 uM; format: cell-based; conditions: filed as activator
[4] = target: T1, Nuclear factor erythroid 2-related factor 2 (Mus musculus); test: Activation of Nrf2 in mouse Hepa1c1c7 cells assessed as increase in NQO1 activity at 0.2 uM; format: cell-based; conditions: filed as activator
[5] = target: T1, Nuclear factor erythroid 2-related factor 2 (Mus musculus); test: Activation of Nrf2 in mouse Hepa1c1c7 cells assessed as increase in NQO1 activity at 0.9 uM; format: cell-based; conditions: filed as activator
[6] = Antioxidant activity assessed as DPPH radical scavenging activity; format: functional
[7] = target: T1, Nuclear factor erythroid 2-related factor 2 (Mus musculus); test: Activation of Nrf2 in mouse Hepa1c1c7 cells assessed as increase in NQO1 activity at 30 uM; format: cell-based; conditions: filed as activator
[8] = target: T1, Nuclear factor erythroid 2-related factor 2 (Mus musculus); test: Activation of Nrf2 in mouse Hepa1c1c7 cells assessed as increase in NQO1 activity at 1.9 uM; format: cell-based; conditions: filed as activator
[9] = target: T1, Nuclear factor erythroid 2-related factor 2 (Mus musculus); test: Activation of Nrf2 in mouse Hepa1c1c7 cells assessed as increase in NQO1 activity at 3.75 uM; format: cell-based; conditions: filed as activator
[10] = target: T1, Nuclear factor erythroid 2-related factor 2 (Mus musculus); test: Activation of Nrf2 in mouse Hepa1c1c7 cells assessed as increase in NQO1 activity at 0.625 uM; format: cell-based; conditions: filed as activator
[11] = target: T1, Nuclear factor erythroid 2-related factor 2 (Mus musculus); test: Activation of Nrf2 in mouse Hepa1c1c7 cells assessed as increase in NQO1 activity at 5 uM; format: cell-based; conditions: filed as activator
[12] = target: T1, Nuclear factor erythroid 2-related factor 2 (Mus musculus); test: Activation of Nrf2 in mouse Hepa1c1c7 cells assessed as increase in NQO1 activity at 2.5 uM; format: cell-based; conditions: filed as activator
[13] = target: T1, Nuclear factor erythroid 2-related factor 2 (Mus musculus); test: Activation of Nrf2 in mouse Hepa1c1c7 cells assessed as increase in NQO1 activity at 1.25 uM; format: cell-based; conditions: filed as activator
[14] = target: T1, Nuclear factor erythroid 2-related factor 2 (Mus musculus); test: Activation of Nrf2 in mouse Hepa1c1c7 cells assessed as increase in NQO1 activity at 40 uM; format: cell-based; conditions: filed as activator
[15] = target: T1, Nuclear factor erythroid 2-related factor 2 (Mus musculus); test: Activation of Nrf2 in mouse Hepa1c1c7 cells assessed as increase in NQO1 activity at 20 uM; format: cell-based; conditions: filed as activator
[16] = target: T1, Nuclear factor erythroid 2-related factor 2 (Mus musculus); test: Activation of Nrf2 in mouse Hepa1c1c7 cells assessed as increase in NQO1 activity at 10 uM; format: cell-based; conditions: filed as activator
[17] = target: T1, Nuclear factor erythroid 2-related factor 2 (Mus musculus); test: Activation of Nrf2 in mouse Hepa1c1c7 cells assessed as increase in NQO1 activity at 0.313 uM; format: cell-based; conditions: filed as activator
[18] = target: T1, Nuclear factor erythroid 2-related factor 2 (Mus musculus); test: Activation of Nrf2 in mouse Hepa1c1c7 cells assessed as increase in NQO1 activity at 3.125 uM; format: cell-based; conditions: filed as activator
[19] = target: T1, Nuclear factor erythroid 2-related factor 2 (Mus musculus); test: Activation of Nrf2 in mouse Hepa1c1c7 cells assessed as increase in NQO1 activity at 12.5 uM; format: cell-based; conditions: filed as activator
[20] = target: T1, Nuclear factor erythroid 2-related factor 2 (Mus musculus); test: Activation of Nrf2 in mouse Hepa1c1c7 cells assessed as increase in NQO1 activity at 25 uM; format: cell-based; conditions: filed as activator
[21] = target: T1, Nuclear factor erythroid 2-related factor 2 (Mus musculus); test: Activation of Nrf2 in mouse Hepa1c1c7 cells assessed as increase in NQO1 activity at 0.8 uM; format: cell-based; conditions: filed as activator
[22] = target: T1, Nuclear factor erythroid 2-related factor 2 (Mus musculus); test: Activation of Nrf2 in mouse Hepa1c1c7 cells assessed as increase in NQO1 activity at 0.4 uM; format: cell-based; conditions: filed as activator
[23] = target: T1, Nuclear factor erythroid 2-related factor 2 (Mus musculus); test: Activation of Nrf2 in mouse Hepa1c1c7 cells assessed as increase in NQO1 activity at 6.25 uM; format: cell-based; conditions: filed as activator
[24] = target: T1, Nuclear factor erythroid 2-related factor 2 (Mus musculus); test: Activation of Nrf2 in mouse Hepa1c1c7 cells assessed as increase in NQO1 activity at 50 uM; format: cell-based; conditions: filed as activator
[25] = target: T1, Nuclear factor erythroid 2-related factor 2 (Mus musculus); test: Activation of Nrf2 in mouse Hepa1c1c7 cells assessed as increase in NQO1 activity at 1.6 uM; format: cell-based; conditions: filed as activator

Question: Which Activity [1] does the source give for `NS(=O)(=O)c1ccc(-n2c(SCC(=O)Nc3ccc(Br)cc3Br)nc3c(I)cc(I)cc3c2=O)cc1` here?
Answer: 1

Question: What about the Activity [2] of the same molecule?
Answer: 1.13

Question: And the Activity [3]?
Answer: 1.08

Question: What about the Activity [4] of the same molecule?
Answer: 1.01

Question: And the Activity [5]?
Answer: 1

Question: And the pIC50 [6]?
Answer: 4.42

Question: What about the Activity [7] of the same molecule?
Answer: 1.17

Question: And the Activity [8]?
Answer: 1.02

Question: And the Activity [9]?
Answer: 1.09

Question: With `NS(=O)(=O)c1ccc(-n2c(S)nc3c(I)cc(I)cc3c2=O)cc1` as the molecule, how does the pIC50 [6] read?
Answer: 4.24

Question: With `NS(=O)(=O)c1ccc(-n2c(SCC(=O)Nc3cc(Cl)c(Cl)cc3Cl)nc3c(I)cc(I)cc3c2=O)cc1` as the molecule, how does the Activity [10] read?
Answer: 1.03

Question: And the Activity [11]?
Answer: 1.08

Question: And the Activity [12]?
Answer: 1.07

Question: What about the Activity [13] of the same molecule?
Answer: 1.05

Question: And the Activity [14]?
Answer: 1.3

Question: What about the pIC50 [6] of the same molecule?
Answer: 4.22

Question: And the Activity [15]?
Answer: 1.25

Question: What about the Activity [16] of the same molecule?
Answer: 1.1

Question: And the Activity [17]?
Answer: 1.01

Question: Which Activity [18] does the source give for `NS(=O)(=O)c1ccc(-n2c(SCC(=O)Nc3ccncc3)nc3c(I)cc(I)cc3c2=O)cc1` here?
Answer: 1.06

Question: And the Activity [19]?
Answer: 1.31

Question: What about the Activity [20] of the same molecule?
Answer: 1.65

Question: What about the Activity [21] of the same molecule?
Answer: 1

Question: What about the Activity [22] of the same molecule?
Answer: 1.04

Question: And the Activity [23]?
Answer: 1.15

Question: And the pIC50 [6]?
Answer: 3.95

Question: And the Activity [24]?
Answer: 1.89

Question: And the Activity [25]?
Answer: 1.02
